Measurements from US5801182A, “Amine substituted compounds” (Cell Therapeutics, Inc., priority 1995, dated 1998).

How the values were obtained:
human stromal cells = experiment: PDGF-induced proliferation in human stromal cells; type: cell-based; settings: for concentration at which comparative compounds' activity is apparent: 50 ng/ml PDGF-BB, human stromal cells, FIG. 23
Method: 3506 on PDGF-induced proliferation in human stromal cells. Procedurally, human stromal cells were starved in serum-free media for 24 hours and then stimulated with 50 ng/ml PDGF. Compound no. 3506 was added at various concentrations one hour prior to PDGF stimulation and pulsed for 24 hours. Cells were harvested and cell proliferation measured having background counts (i.e., starved cells) at about 10% of control levels.
Human stromal cells were starved in serum-free media for 24 hours and then stimulated with 50 ng/ml PDGF-BB. The drugs were added at various concentrations one hour prior to PDGF stimulation. Tritiated thymidine was added at the time of PDGF stimulation and pulsed for 24 hours. Cells were harvested and cell proliferation measured (FIG. 23). Background counts (i.e., starved cells) were about 10% of control levels.

thymocytes = experiment: Thymocyte proliferation and activation, co-stimulated with Con A and IL-2; type: cell-based, Balb/C mice; settings: Mus musculus, 2 h, compound added two hours prior, FIGS. 6-11
Method: 3506, 3556, 3563, 3576, 3581, 3582 and 3584 on thymocyte proliferation and activation, co-stimulated with Concanavalin A (Con A) and interleukin-2 (IL-2), at various concentrations of the compounds (IC50). Con A and IL-2 together stimulate T cell proliferation and differentiation.
Thymuses, obtained from normal, female Balb/C mice, were dissociated and plated into 96-well plates at a density of 2×10^5 cells/well. Con A ([…]) and IL-2 (15 U/ml) were added to the wells. The cells were incubated for 4 days at 37° C. On day 4, the cells were pulsed with tritiated thymidine and incubated for an additional 4 hours. Incorporated tritiated thymidine of harvested cells was determined in a liquid scintillation counter. Results plotted as dose concentration versus proliferation for inventive compounds nos. 3506, 3556, 3563, 3576, 3581, 3582 and 3584 are shown in FIGS. 6 (3506), 7 (3556), 8 (3563), 9 (3576), 10 (3581 and 3582) and 11 (3584). Respective concentrations of inventive compound (shown in the figures) were added two hours prior to Con A and IL-2 activation. Background counts were less than 200 cpm.

[1] = test system: Mouse bone marrow cells (CFU-GM); experiment: CFU-GM colony assay, effect on normal bone marrow cells; type: cell-based; settings: for effect on normal cells compared to known chemotherapeutic compounds in vitro: vs vinblastine, 5-fluorouracil, doxorubicin or cisplatinum; for toxicity for normal mouse marrow cells: 8 hours incubation, CFU-GM after 7 days, FIGS. 12-16
Excerpt: This example illustrates a method for examining an effect of the inventive compounds, showing potential as cancer therapies on normal cells. This assay has been used clinically to evaluate recovery of patients' marrow following chemotherapy or radiation. In this specific example, inventive compounds nos.
Mouse bone marrow cells are useful in this assay because they produce colonies, which can later be counted, in culture. The colonies are called colony forming unit-granulocyte macrophage (CFU-GM) and depend on a source of colony stimulating factor for growth.
Cells were cultured with inventive compounds nos. 3563, 3576, 3581, 3584 and 4500, to comparatively evaluate an effect on normal cells of inventive compounds identified as potential cancer therapies. Procedurally, cells were incubated for 8 hours with various concentrations of these compounds. A negative control without any compound was simultaneously prepared. After 8 hours, the incubated cells were washed thoroughly and a consistent number were subsequently plated to obtain CFU-GM. Colonies were permitted to grow for 7 days at 37° C., in 5% CO2. After 7 days of growth, colony growths were counted microscopically. Data obtained in this assay for inventive compounds nos. 3563, 3576, 3581, 3584 and 4500 are plotted in FIGS. 12, 13, 14, 15 and 16, respectively. The data in the figures are shown to compare the colonies counted for cells incubated with varying concentrations of the compounds tested against the negative control, without compound. At concentrations ranging from 5 to 30 μM, more colonies existed for cells incubated with the inventive potential cancer compound than with known, chemotherapeutic agents. Compound no.

[2] = test system: HIV long terminal repeat (LTR) promotor; experiment: Inhibition of reporter gene (alkaline phosphatase) expression directed by HIV-LTR promotor in 293-EBNA cells; type: cell-based; settings: Human immunodeficiency virus 1; reporter gene directed by HIV-LTR promotor in 293-EBNA cells; FIGS. 17, 19, 21
Excerpt: This example is an assay used to measure anti-viral activity of inventive compounds nos. […] This assay is predictive of anti-viral activity for retroviruses. Specifically,a plasmid construct, pHIV.AP, using the human immunodeficiency virus (HIV) long terminal repeat (LTR) promotor [derived from pU3R-III CAT (Sodroski et al. Science, Vol. 227, page 171, 1985) to direct the expression of secreted human placental alkaline phosphatase reporter gene and an expression vector for a 72 amino acids tat protein from HIV (Frankel et al., Cell, Vol. 55, pages 1189-1193, 1988) were transfected into a tumor cell line (e.g., 293-EBNA cells). The stably transfected cells were treated with various concentrations of the inventive compounds. The expression of the alkaline phosphatase (AP) reporter gene in the individual cultures was then measured by following the change in absorbance at A405 of cell conditioned media in the presence of a suitable substrate (e.g., ortho-nitrophenol phosphate). Berger et al., Gene, Vol. 66, pages 1-10, 1988.

[3] = Viability of 293-EBNA cells (alamarBlue colorimetric assay); type: cell-based; settings: human, 293-ebna cells; alamarBlue; FIGS. 18, 20, 21; read-out: LD50, 293-EBNA cells
Method: (§1) The effect of respective inventive compounds on the viability of 293-EBNA cells was measured by a colorimetric assay that uses the alamarBlue® dye (purchased from Alamar Biosciences, Inc.) to report cell proliferation, viability and cytotoxicity. This dye is an oxidation-reduction (Redox) indicator that changes color in response to chemical reduction of growth medium resulting from cell growth. The general procedure involves adding alamarBlue® in an amount equal to 10% of the culture volume, returning the culture to incubator for four hours, and measuring the absorbance at 570 nm after subtraction of background absorbance at 600 nm.

293-EBNA cells = experiment: as above; type: cell-based
Method: as §1

Balb/3T3 cells [4] = experiment: PDGF-induced proliferation of Balb/3T3 cells (tritiated thymidine); type: cell-based; settings: Mus musculus, BALB/3T3, 24 h; PDGF-stimulated; FIGS. 2 and 4; read-out: concentrations inhibiting proliferation of Balb/3T3 cells stimulated by PDGF
Method: Disregulated PDGF-proliferative response has been linked to a variety of diseases, including, e.g., restenosis, atherosclerosis, fibrosis, and tumor cell angiogenesis. Balb/3T3 cells respond vigorously to PDGF stimulation, and are useful in vitro models for further study of PDGF-induced proliferation.
Balb/3T3 cells were plated in low serum-containing medium for 24 hours prior to stimulation with various concentrations of inventive compounds nos. 3556 and 4500. PDGF was added at varying concentrations along with tritiated thymidine. The cells were allowed to incubate for one day, following addition of PDGF and thymidine. Twenty-four hours later, the cells were harvested and counted by liquid scintillation counting. FIGS. 2 and 4 report data for inventive compounds nos. 3556 and 4500, respectively, obtained in this proliferation assay. The results shown in each respective figure illustrate that inventive compounds nos.

Balb/3T3 cells [5] = experiment: Viability (cytotoxicity) assay of Balb/3T3 cells with BCECF; type: cell-based; settings: at the concentrations at which the compounds inhibit proliferation; vs control value of 100%; FIGS. 3 and 5
Method: In conjunction with the Balb/3T3 proliferation assay, a related viability assay was conducted to assess the cytotoxicity of compounds which inhibit proliferation in this system. The assay protocol was identical to that performed above except that tritiated thymidine was not added after the 24 hour incubation with PDGF. In this cytotoxicity assay, after incubating the cells, a 10 μM solution of BCECF was added and the cells were incubated for 30 minutes at 37° C. Following this incubation, BCECF was replaced with PBS and the plate read for fluorescence in a Millipore cytofluorometer. Data obtained was plotted as a percent of control versus concentration of inventive compound tested. FIGS. 3 and 5 represent the results of this viability assay, for compounds nos. 3556 and 4500, respectively.

SMILES | IC50 [2] | CC50 [3] | further results
CC(=O)CCCCCCn1c(=O)c2c(ncn2C)n(C)c1=O [A, 1-(7-oxooctyl)-3,7-dimethylxanthine] |  |  | concentration at which comparative compounds' activity is apparent (human stromal cells): millimolar concentrations
CC(CCCCn1c(=O)c2c(ncn2C)n(C)c1=O)N(C)C (centres unmarked) [B, 1-(5-dimethylaminohexyl)-3,7-dimethylxanthine] |  |  | concentration at which comparative compounds' activity is apparent (human stromal cells): millimolar concentrations
CCCCCCCCCCCCN(C)CCCCCCCCCCCn1c(=O)c2c(ncn2C)n(C)c1=O [compound 3576] | < 10 µM | < 15 µM | IC50 (thymocytes): 0.26 µM; effect on normal cells compared to known chemotherapeutic compounds in vitro [1]: less deleterious to normal cells
CCCCCCCCCCNCCCCCCCCCCCn1c(=O)c2c(ncn2C)n(C)c1=O [compound 3581] | < 5 µM | < 10 µM | effect on normal cells compared to known chemotherapeutic compounds in vitro [1]: less deleterious to normal cells
CCCCCCCCCCCCCCNCCCCCCCCCCCn1c(=O)c2c(ncn2C)n(C)c1=O [compound 3582] | < 5 µM | < 5 µM | 
CCCCCCCCCCCCCCCCNCCCCCCCCCCCn1c(=O)c2c(ncn2C)n(C)c1=O [compound 3584] | < 10 µM | < 15 µM | effect on normal cells compared to known chemotherapeutic compounds in vitro [1]: less deleterious to normal cells
CCCCCCCCCCCCCNCCCCCCCCCCCn1c(=O)c2c(ncn2C)n(C)c1=O [compound 4507] | < 4 µM | < 7 µM | 
CCCCCCCCCCCNCCCCCCn1c(=O)c2c(ncn2C)n(C)c1=O [compound no. 3506] |  |  | PDGF-induced proliferation in human stromal cells (human stromal cells; 50 ng/ml PDGF, compound added one hour prior, FIG. 1): inhibition of PDGF-induced proliferation; IC50 (thymocytes): 2.3 µM
CCCCCCCCCCCCNCCCCCCCCCCCn1c(=O)c2c(ncn2C)n(C)c1=O [compound no. 3563] | < 4 µM | < 7 µM | toxicity for normal mouse marrow cells [1]: most cytotoxic to proliferative potential of the mouse marrow cells; effect on normal cells compared to known chemotherapeutic compounds in vitro [1]: less deleterious to normal cells
CCCCCCNCCCCCCCCCCCn1c(=O)c2c(ncn2C)n(C)c1=O [compound no. 3580] | < 10 µM | < 30 µM | cytotoxicity to 293-EBNA cells (in words) (293-EBNA cells): minimal cytotoxicity
CCCCCCN(CCCCCC)CCCCCCCCCCCn1c(=O)c2c(ncn2C)n(C)c1=O [compound no. 3590] | < 20 µM |  | cytotoxicity to 293-EBNA cells (in words) (293-EBNA cells): little cytotoxicity even at >32 μM
COc1cc(CNCCCCCCCCCCCn2c(=O)c3c(ncn3C)n(C)c2=O)cc(OC)c1OC [compound no. 3593] | < 25 µM |  | cytotoxicity to 293-EBNA cells (in words) (293-EBNA cells): little cytotoxicity, even at >32 μM
CCCCCCN(C)CCCCCCCCCCCn1c(=O)c2c(ncn2C)n(C)c1=O [compound no. 4500] | < 10 µM |  | minimal effective concentration (Balb/3T3 cells [4]): < 30 µM; cytotoxicity to Balb/3T3 cells (Balb/3T3 cells [5]): not cytotoxic to any cells; toxicity for normal mouse marrow cells [1]: virtually no toxicity at elevated concentrations
CCCCCCCCCCCCCCCNCCCCCCCCCCCn1c(=O)c2c(ncn2C)n(C)c1=O [compound no. 4508] | < 10 µM | < 10 µM | 
